Source: article PMC3390974 (ACS medicinal chemistry letters, 2011)

Legend:
Test in all cases: Gαq-mediated intracellular calcium mobilization
[1] = molecular target: human 5-HT2B receptor (Homo sapiens, UniProt P41595); conditions: calcium flux, HEK-293
[2] = molecular target: human 5-HT2A receptor (Homo sapiens, UniProt P28223); conditions: calcium flux, HEK-293
[3] = molecular target: T1, human 5-HT2C (INI) receptor (Homo sapiens, UniProt P28335); conditions: for Emax: HEK293, read-out: 5-HT2C Emax, percentage of maximal activation by 5-HT, or activation at 10 μM for NA; for agonism at the 5-HT2C receptor (in words): calcium flux, HEK-293
T1 sequence (P28335 33-458): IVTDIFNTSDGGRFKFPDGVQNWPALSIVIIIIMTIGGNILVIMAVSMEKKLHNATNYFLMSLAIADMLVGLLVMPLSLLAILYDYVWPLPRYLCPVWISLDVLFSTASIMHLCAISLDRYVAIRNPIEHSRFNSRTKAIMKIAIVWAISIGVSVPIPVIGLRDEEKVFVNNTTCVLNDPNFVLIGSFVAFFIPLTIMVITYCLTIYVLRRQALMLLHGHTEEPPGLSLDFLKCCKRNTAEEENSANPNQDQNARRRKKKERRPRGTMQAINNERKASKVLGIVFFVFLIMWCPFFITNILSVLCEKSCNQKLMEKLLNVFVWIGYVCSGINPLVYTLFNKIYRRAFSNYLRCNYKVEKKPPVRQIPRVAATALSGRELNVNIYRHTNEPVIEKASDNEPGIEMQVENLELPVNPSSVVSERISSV

Chain of human 5-HT2A receptor (P28223 whole entry): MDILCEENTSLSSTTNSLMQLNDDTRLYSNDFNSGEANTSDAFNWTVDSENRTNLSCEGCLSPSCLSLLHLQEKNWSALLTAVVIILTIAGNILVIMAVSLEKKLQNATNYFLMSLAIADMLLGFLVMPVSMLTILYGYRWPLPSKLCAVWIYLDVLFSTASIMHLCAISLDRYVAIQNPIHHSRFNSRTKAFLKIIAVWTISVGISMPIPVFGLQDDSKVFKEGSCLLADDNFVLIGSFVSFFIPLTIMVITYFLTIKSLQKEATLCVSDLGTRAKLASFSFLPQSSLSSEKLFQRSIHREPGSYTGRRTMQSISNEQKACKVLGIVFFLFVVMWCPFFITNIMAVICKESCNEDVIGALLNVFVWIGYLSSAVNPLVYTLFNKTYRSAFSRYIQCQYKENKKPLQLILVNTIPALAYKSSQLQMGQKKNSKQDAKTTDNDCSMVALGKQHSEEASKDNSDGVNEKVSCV
Chain of human 5-HT2B receptor (P41595 whole entry): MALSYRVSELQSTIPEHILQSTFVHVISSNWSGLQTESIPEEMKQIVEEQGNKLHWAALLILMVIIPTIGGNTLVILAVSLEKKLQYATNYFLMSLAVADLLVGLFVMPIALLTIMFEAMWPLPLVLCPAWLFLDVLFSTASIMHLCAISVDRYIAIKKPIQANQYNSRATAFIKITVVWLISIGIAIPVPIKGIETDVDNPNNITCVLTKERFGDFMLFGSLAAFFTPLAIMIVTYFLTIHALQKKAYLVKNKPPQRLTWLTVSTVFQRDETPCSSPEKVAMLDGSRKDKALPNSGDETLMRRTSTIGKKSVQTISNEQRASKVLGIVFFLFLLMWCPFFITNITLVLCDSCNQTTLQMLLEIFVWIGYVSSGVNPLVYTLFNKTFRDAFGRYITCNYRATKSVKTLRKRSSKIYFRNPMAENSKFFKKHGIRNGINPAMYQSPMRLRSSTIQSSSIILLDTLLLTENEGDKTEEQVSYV

SMILES | agonism at the 5-HT2B receptor (in words) [1] | agonism at the 5-HT2A receptor (in words) [2] | agonism at the 5-HT2C receptor (in words) [3] | also measured
Cl.NC[C@H]1C[C@@H]1c1ccccc1OCC1CC1 (racemic) [Compound 11e, trans-[2-(2-cyclopropylmethoxyphenyl)cyclopropyl]methylamine hydrochloride] | inactive | – | – | –
Cl.NC[C@H]1C[C@@H]1c1ccccc1OCC1CC1 (single isomer, unassigned) [(+)-11e, (+)-trans-[2-(2-cyclopropylmethoxyphenyl)cyclopropyl]methylamine hydrochloride] | activate neither | activate neither | – | agonism at the 5-HT2B receptor (in words) ([1]; listed as (+)-trans-[2-(2-cyclopropylmethoxyphenyl)cyclopropyl]methylamine hydrochloride): no detectable agonism
COc1ccc(-c2ccccc2)cc1[C@H]1C[C@@H]1CN [Compound 9a] | – | – | – | EC50 [3]: 3.47 µM; Emax [3]: 67%
COc1ccc(-c2ccccc2C)cc1[C@H]1C[C@@H]1CN [Compound 9b] | – | – | – | EC50 [3]: 3.8 µM; Emax [3]: 64%
CCCCc1ccc(-c2ccc(OC)c([C@H]3C[C@@H]3CN)c2)cc1.Cl [Compound 9h] | failure | failure | failure | –
Cc1ccc(OCC(C)C)c([C@H]2C[C@@H]2CN)c1.Cl [Compound 10a] | – | – | much less potent | –
CCCCOc1ccc(C)cc1[C@H]1C[C@@H]1CN.Cl [Compound 10b] | – | – | much less potent | –
CC(C)COc1ccccc1[C@H]1C[C@@H]1CN.Cl [Compound 11c] | inactive | – | – | –
CCCCCOc1ccccc1[C@H]1C[C@@H]1CN.Cl [Compound 11d] | abolished agonist activity | abolished agonist activity | abolished agonist activity | –
Cl.NC[C@H]1C[C@@H]1c1ccccc1OCC1CCCCC1 [Compound 11g] | abolished agonist activity | abolished agonist activity | abolished agonist activity | –
